Measurements: patent US11027028B2, “Manganese complexes with substituted bisphosphonates useful as imaging and therapeutic agents” (DUKE UNIVERSITY, priority 2015, dated 2021)

Experiments:
[1] = In vivo MRI after i.v. administration of Mn(II) complexes; set-up: species or system mouse
Description: FIG. 4. A, In vivo MRI in control mouse after i.v. administration of MnNTA. B, MRI after i.v. administration of Mn:ETID ([…] of 40 mM solution).
In vivo behavior was tested of two relatively strong (log K1>7) ligands for Mn(II) chelation, nitrilotriacetic acid (NTA), closely related to EDTA, and […] (3,4-DBA).
Enhancement of the bowel is also noted but more variable, believed to represent elimination of the coordination complex from the gallbladder into the small intestine. In addition, subtle but transient T1 changes are observed in the skeletal muscles and long bones that return to normal after 30 min, paralleling the mild residual T1 changes in major vessels, consistent with a blood pool rather than local parenchymal uptake effect.

[2] = tested on: 4T1 tumor; test: Dynamic contrast enhancement of 4T1 tumor after i.v. administration; assay type: in vivo; conditions: pilot data
Description: FIG. 5. Dynamic contrast enhancement of 4T1 tumor after i.v. administration of 1-hydroxybisphosphonate:Mn complex linked to HSP90 inhibitor as in Scheme 1C, 25 mg/kg. Graph on left depicts relative change in T1 enhancement in tumors after labeled drug (n=5) and after Mn:ETID complex alone (n=6).
Several synthetic strategies were used for labeling small molecule drugs either directly or via polyethyleneglycol (PEG) linkers. Two complexes, the first with a medronate analogue (Scheme IB) via the amine-terminated PEG linker and the second an etidronate analogue coupled through the COOH-terminated PEG linker (Scheme 1C), were synthesized, characterized and studied preliminarily in vivo.

[3] = previously FDA-approved Mn(II) agent; cited from earlier work

O=C(O)CN(CC(=O)O)CC(=O)O [NTA, nitrilotriacetic acid]
Cardiac enhancement ([1]; after i.v. administration, indicates free Mn released into the blood pool): cardiac enhancement was also seen | Biodistribution on in vivo MR imaging ([1]; mouse, in vivo, iv): release of free Mn and hepatocellular uptake

Cc1nn(-c2ccc(C(N)=O)c(NCCCOCCOCCOCCOCCOCCCC(=O)NCCCC(O)(P(=O)(O)O)P(=O)(O)O)c2)c2c1C(=O)CC(C)(C)C2 [Scheme 1C]
Enhancement in 4T1 tumors relative to paramagnetic coordination complex alone [2]: progressive accumulation of enhancement in 4T1 tumors that is greater than what is seen for the paramagnetic coordination complex alone

Cc1ncc(COP(=O)([O-])[O-])c(CN(CCN(CC(=O)[O-])Cc2c(COP(=O)([O-])[O-])cnc(C)c2[O-])CC(=O)[O-])c1[O-].[H+].[H+].[H+].[Mn+2].[Na+].[Na+].[Na+] [Teslascan, mangafodipir trisodium]
In vivo distribution [3]: immediately distributed to the liver, releasing free Mn
